According to US20220128542A1, “TREATMENT EFFICIENCY EVALUATION” (TX MEDIC AB, priority 2019, published 2022):

Tested on: brain of rats subjected to severe traumatic brain injury (sTBI)
Assay: Ingenuity pathway analysis of differentially regulated genes after sTBI (canonical pathways, diseases and molecular functions; Example 4)
Design: species or system rat
Details: 2 days after TBI
Description: Pathway analysis of the differentially regulated genes was carried out using the Ingenuity pathway analysis package. The analysis was performed with special reference to pathways and molecular processes and diseases associated with neurodegenerative disease, including dementia, Alzheimer's disease, ALS, TBI and stroke, and with scarring and fibrosis, including glaucoma and normal pressure hydrocephalus (NPH) after subarachnoid haemorrhage.

[1] = TBI + 5 mg/kg LMW-DS relative to control

sodium salt of dextran sulfate [LMW-DS]
Apoptosis (disease/function), z score (TBI + 5 mg/kg LMW-DS): 0.601
Behavior (disease/function), z score (TBI + 5 mg/kg LMW-DS): −2.009
Carcinoma (disease/function), z score (TBI + 5 mg/kg LMW-DS): −2.071
Cell death (disease/function), z score (TBI + 5 mg/kg LMW-DS): 0.051
Cell death of antigen presenting cells (disease/function), z score (TBI + 5 mg/kg LMW-DS): −0.62
Cell death of immune cells (disease/function), z score (TBI + 5 mg/kg LMW-DS): −1
Cell death of tumor cell lines (disease/function), z score (TBI + 5 mg/kg LMW-DS): −1.947
Cell movement (disease/function), z score (TBI + 5 mg/kg LMW-DS): −3.723
Cell movement of tumor cell lines (disease/function), z score (TBI + 5 mg/kg LMW-DS): −2.078
Cell proliferation of leukocyte cell lines (disease/function), z score (TBI + 5 mg/kg LMW-DS): −2.754
Cellular homeostasis (disease/function), z score (TBI + 5 mg/kg LMW-DS): −3.19
Chemotaxis (disease/function), z score (TBI + 5 mg/kg LMW-DS): −3.642
Concentration of prostaglandin (disease/function), z score (TBI + 5 mg/kg LMW-DS): −0.911
Development of vasculature (disease/function), z score (TBI + 5 mg/kg LMW-DS): −1.534
Digestive organ tumor (disease/function), z score (TBI + 5 mg/kg LMW-DS): −1.149
Digestive system cancer (disease/function), z score (TBI + 5 mg/kg LMW-DS): −2.221
Edema (disease/function), z score (TBI + 5 mg/kg LMW-DS): 3.386
Epithelial neoplasm (disease/function), z score (TBI + 5 mg/kg LMW-DS): −1.393
Extracranial solid tumor (disease/function), z score (TBI + 5 mg/kg LMW-DS): −0.992
Feeding (disease/function), z score (TBI + 5 mg/kg LMW-DS): −0.895
Growth of tumor (disease/function), z score (TBI + 5 mg/kg LMW-DS): −1.233
Hematologic cancer (disease/function), z score (TBI + 5 mg/kg LMW-DS): −1.067
Incidence of tumor (disease/function), z score (TBI + 5 mg/kg LMW-DS): −0.731
Leukocyte migration (disease/function), z score (TBI + 5 mg/kg LMW-DS): −2.163
Leukopoiesis (disease/function), z score (TBI + 5 mg/kg LMW-DS): −3.549
Locomotion (disease/function), z score (TBI + 5 mg/kg LMW-DS): −0.039
Lymphocyte homeostasis (disease/function), z score (TBI + 5 mg/kg LMW-DS): −2.94
Lymphocytic cancer (disease/function), z score (TBI + 5 mg/kg LMW-DS): −0.48
Lymphocytic neoplasm (disease/function), z score (TBI + 5 mg/kg LMW-DS): −0.48
Lymphopoiesis (disease/function), z score (TBI + 5 mg/kg LMW-DS): −3.105
Lymphoproliferative disorder (disease/function), z score (TBI + 5 mg/kg LMW-DS): −0.48
Malignant solid tumor (disease/function), z score (TBI + 5 mg/kg LMW-DS): −1.492
Metabolism of hormone (disease/function), z score (TBI + 5 mg/kg LMW-DS): −1.632
Migration of cells (disease/function), z score (TBI + 5 mg/kg LMW-DS): −3.087
NF-κB Signaling canonical pathway, effect (TBI + 5 mg/kg LMW-DS): Inhibited
Necrosis (disease/function), z score (TBI + 5 mg/kg LMW-DS): −1.503
Neoplasia of leukocytes (disease/function), z score (TBI + 5 mg/kg LMW-DS): −0.48
Non-melanoma solid tumor (disease/function), z score (TBI + 5 mg/kg LMW-DS): −1.249
Osteoarthritis Pathway canonical pathway, effect (TBI + 5 mg/kg LMW-DS): Inhibited
Proliferation of hematopoietic progenitor cells (disease/function), z score (TBI + 5 mg/kg LMW-DS): −2.951
Quantity of cells (disease/function), z score (TBI + 5 mg/kg LMW-DS): −3.092
Quantity of epithelial tissue (disease/function), z score (TBI + 5 mg/kg LMW-DS): −0.028
Quantity of neuroglia (disease/function), z score (TBI + 5 mg/kg LMW-DS): −1.446
Resorption of bone (disease/function), z score (TBI + 5 mg/kg LMW-DS): −0.478
Role of NFAT in Cardiac Hypertrophy canonical pathway, effect (TBI + 5 mg/kg LMW-DS): Inhibited
Secretion of molecule (disease/function), z score (TBI + 5 mg/kg LMW-DS): 1.634
Size of body (disease/function), z score (TBI + 5 mg/kg LMW-DS): −4.771
Synthesis of hormone (disease/function), z score (TBI + 5 mg/kg LMW-DS): −1.632
Transport of molecule (disease/function), z score (TBI + 5 mg/kg LMW-DS): 0.248
Vasculogenesis (disease/function), z score (TBI + 5 mg/kg LMW-DS): −2.274
Adrenomedullin Signaling pathway canonical pathway, z score [1]: −2.236
NF-κB Signaling canonical pathway, z score [1]: −2
Osteoarthritis Pathway canonical pathway, z score [1]: −2.646
Role of NFAT in Cardiac Hypertrophy canonical pathway, z score [1]: −1.633
Apoptosis (disease/function), z score (TBI + 15 mg/kg LMW-DS): −0.502
Apoptosis of tumor cell lines (disease/function), z score (TBI + 15 mg/kg LMW-DS): 0.09
Behavior (disease/function), z score (TBI + 15 mg/kg LMW-DS): −0.139
Cell death (disease/function), z score (TBI + 15 mg/kg LMW-DS): −0.141
Necrosis (disease/function), z score (TBI + 15 mg/kg LMW-DS): −0.477
Quantity of blood cells (disease/function), z score (TBI + 15 mg/kg LMW-DS): −0.34
Quantity of cells (disease/function), z score (TBI + 15 mg/kg LMW-DS): −0.797
Quantity of lymphocytes (disease/function), z score (TBI + 15 mg/kg LMW-DS): −0.943
Transcription of RNA (disease/function), z score (TBI + 15 mg/kg LMW-DS): −2.488
Effect on diseases or functions annotation: Abdominal cancer (TBI + 1 mg/kg LMW-DS): Inhibited
Effect on diseases or functions annotation: Abdominal carcinoma (TBI + 1 mg/kg LMW-DS): Inhibited
Effect on diseases or functions annotation: Abdominal neoplasm (TBI + 1 mg/kg LMW-DS): Inhibited
Effect on diseases or functions annotation: Activation of blood cells (TBI + 1 mg/kg LMW-DS): Activated
Effect on diseases or functions annotation: Activation of cells (TBI + 1 mg/kg LMW-DS): Activated
Effect on diseases or functions annotation: Activation of leukocytes (TBI + 1 mg/kg LMW-DS): Activated
Effect on diseases or functions annotation: Activation of lymphocytes (TBI + 1 mg/kg LMW-DS): Inhibited
Effect on diseases or functions annotation: Adhesion of tumor cell lines (TBI + 1 mg/kg LMW-DS): Activated
Effect on diseases or functions annotation: Apoptosis (TBI + 1 mg/kg LMW-DS): Inhibited
